Where “and” joins values, the source holds several entries; their conditions need not be identical. Identical values can stand only once.
Tests used:
[1] = system: recurrent oral ulceration (ROU); assay: In vivo effect of PLAG on recurrent oral ulceration in patients, self-reported scoring system; design: species or system human
From the text: Total 44 patients with recurrent oral ulceration (ROU) between 20 and 80 years old (34 female patients and 10 male patients, Disease; RAS ([…]), BD (27 patients), SLE (1 patient), Mean age: 49.3±9.0) were enrolled in the study. The diagnosis of ROU was made based upon the history and the physical examination on oral mucosa by physicians. We included three conditions with recurrent oral ulceration: Recurrent aphthous stomatitis (RAS), Behcet's disease (BD), Systemic lupus erythematosus (SLE). After completing baseline assessments, 250 mg of PLAG was administered to the patients orally twice a day (250 mg PLAG per tablet, 500 mg/day) for 2-4 weeks. The change of recurrent oral ulcer in the patients was evaluated at 2 or 4 weeks after the treatment by using self-reported scoring system (total 12 points), including the following three measurements: change of ulcer frequency (Likert 0-4), Change of ulcer severity: pain & size (Likert 0-4) and Change of ulcer duration (Likert 0-4).

[2] = system: hematopoietic stem cells and megakaryocytes; conditions: cited from earlier work
[3] = GLP toxicity test; cited from earlier work
[4] = system: sepsis animal model; conditions: cecal-ligation-puncture sepsis model; cited from earlier work
[5] = 44 patients, relation to PLAG cannot be excluded
[6] = average of 44 patients, 500 mg/day orally, 2-4 weeks

With `CCCCC/C=C\C/C=C\CCCCCCCC(=O)OC(COC(C)=O)COC(=O)CCCCCCCCCCCCCCC` (stereo not shown) [PLAG, 1-palmitoyl-2-linoleoyl-3-acetylglycerol] the “side effect of PLAG” value ([1]; 44 patients, 500 mg/day orally, 2-4 weeks) was “any clear side effect of PLAG was not identified”, the “patients with mild dyspepsia” value [1, 5] was “two” and the “patients with mild skin rash” value [1, 5] was “one”. The “patients with mild taste change (metallic taste)” value [1, 5] was “one”, the “effect on symptoms of oral ulceration” value ([1]; administration of PLAG to the patients) was “significantly improves the symptoms of oral ulceration” and the “change of ulcer duration (Likert 0-4), average” value [1, 6] was 1.86±0.72 and 1.86. The “change of ulcer frequency (Likert 0-4), average” value [1, 6] was 2.07±0.55 and 2.07, the “change of ulcer severity: pain & size (Likert 0-4), average” value [1, 6] was 2.13±0.68 and 2.14 and the “total (sum of the three scores), average” value [1, 6] was 5.93±1.76 points and 5.93 points. The significant improvement ([1]; individual patient, 1 or 0 from sum of the three scores) was 1 (considered to be significantly improved when the sum of the three scores was more than 5 points), the growth-stimulating activities [2] was “have growth-stimulating activities of hematopoietic stem cells and megakaryocytes” and the toxicity [3] was “no toxicity”. For the same compound, the “survivability ratio of animals” value [4] was “increases survivability ratio of animals”.
